Experimental data taken from ChEMBL document CHEMBL5252573, “2,3-Dihydrosorbicillin and chrysopanol stimulate insulin secretion in INS-1 cells” (Bioorg Med Chem Lett, 2023).
Active and inactive are the calls of the source. No cut-off for these calls is given here.

How the values were obtained:
[1] = Induction of glucose stimulated insulin secretion in rat INS1 cells assessed as increase in insulin level at 5 uM incubated for 1 hr; assay type: functional
[2] = Induction of glucose stimulated insulin secretion in rat INS1 cells assessed as increase in insulin level at 10 uM incubated for 1 hr; assay type: functional
INS1 [3] = test: Cytotoxicity against rat INS1 cells assessed as reduction in cell viability at 2.5 to 10 uM incubated for 24 hrs by MTT assay; assay type: toxicity, cell-based; details: ins1, 24 h, dose 2.5-10 µM
INS1 [4] = test: Upregulation of PI3K protein expression in rat INS1 cells at 5 uM incubated for 24 hrs by Western blot analysis; assay type: functional, cell-based
INS1 [5] = test: Upregulation of IRS-2 protein expression in rat INS1 cells at 5 uM incubated for 24 hrs by Western blot analysis; assay type: functional, cell-based
INS1 [6] = test: Upregulation of PPARgamma protein expression in rat INS1 cells at 5 uM incubated for 24 hrs by Western blot analysis; assay type: functional, cell-based
INS1 [7] = test: Upregulation of PDX-1 protein expression in rat INS1 cells at 5 uM incubated for 24 hrs by Western blot analysis; assay type: functional, cell-based
[8] = Induction of glucose stimulated insulin secretion in rat INS1 cells assessed as increase in insulin level at 2.5 uM incubated for 1 hr; assay type: functional
INS1 [9] = test: Upregulation of AKT protein expression in rat INS1 cells at 5 uM incubated for 24 hrs by Western blot analysis; assay type: functional, cell-based
INS1 [10] = test: Upregulation of PPARgamma protein expression in rat INS1 cells at 10 uM incubated for 24 hrs by Western blot analysis; assay type: functional, cell-based
INS1 [11] = test: Upregulation of IRS-2 protein expression in rat INS1 cells at 10 uM incubated for 24 hrs by Western blot analysis; assay type: functional, cell-based
INS1 [12] = test: Upregulation of AKT protein expression in rat INS1 cells at 10 uM incubated for 24 hrs by Western blot analysis; assay type: functional, cell-based
INS1 [13] = test: Upregulation of PDX-1 protein expression in rat INS1 cells at 10 uM incubated for 24 hrs by Western blot analysis; assay type: functional, cell-based
INS1 [14] = test: Upregulation of PI3K protein expression in rat INS1 cells at 10 uM incubated for 24 hrs by Western blot analysis; assay type: functional, cell-based

Cc1ccc(S(=O)(=O)NC(=O)NN2CC3CCCC3C2)cc1 (stereo unspecified) [GLICLAZIDE]
Activity [1]: 9.69 ng/mL
Activity [2]: 20.85 ng/mL

Cc1cc(O)c2c(c1)C(=O)c1cc(O)cc(O)c1C2=O [EMODIN]
Activity (INS1 [3]): Non-Toxic

COC(=O)[C@@]12Oc3ccc(-c4ccc5c(c4O)C(=O)C4=C(O)C[C@H](C)[C@@H](O)[C@]4(C(=O)OC)O5)c(O)c3C(=O)C1=C(O)C[C@H](C)[C@H]2O
Activity (INS1 [3]): Non-Toxic

CC(O)c1nc2ccccc2c(=O)[nH]1 (stereo unspecified)
Activity (INS1 [3]): Non-Toxic

Cc1cc(O)c2c(c1)C(=O)c1cccc(O)c1C2=O [CHRYSOPHANOL]
Activity [1]: 20.01 ng/mL
Activity (INS1 [4]): Active
Activity (INS1 [3]): Non-Toxic
Activity (INS1 [5]): Active
Activity [2]: 24.23 ng/mL
Activity (INS1 [6]): Active
Activity (INS1 [7]): Active
Activity [8]: 8.81 ng/mL
Activity (INS1 [9]): Active

C=CC(C)(C)[C@@]12C=C(O)C(=O)N3/C(=C/c4c[nH]cn4)C(=O)N[C@]31N(O)c1ccccc12
Activity [1]: 12.05 ng/mL
Activity (INS1 [3]): Non-Toxic
Activity [2]: 12.86 ng/mL

C/C=C/CCC(=O)c1cc(C)c(O)c(C)c1O
Activity [1]: 8.92 ng/mL
Activity (INS1 [10]): Active
Activity (INS1 [11]): Active
Activity (INS1 [12]): Active
Activity (INS1 [3]): Non-Toxic
Activity (INS1 [13]): Active
Activity [2]: 15.57 ng/mL
Activity (INS1 [14]): Active

C=CC(C)(C)[C@@]12C=C(O)C(=O)N3/C(=C/c4cnc[nH]4)C(=O)N[C@]31N(OC)c1ccccc12
Activity (INS1 [3]): Non-Toxic
